How the values were obtained:
[1] = target: T1, ALK (Homo sapiens, UniProt Q9UM73); test: KINOMEscan scanEDGE; assay type: binding; settings: 20 uM
T1 construct: purchased Eurofins DiscoverX (KINOMEscan; SAFETYscan E/IC50 ELECT)

[2] = tested on: GABAA; test: SAFETYscan Ion Channel; assay type: cell-based; settings: 10 uM
Protocol: (§1) The specificity of EDG-5506 for fast skeletal myosin over other, unrelated proteins was confirmed using two off-target binding and activity screens. […] A second off-target panel (SAFETYscan E/IC50 ELECT, Eurofins DiscoverX) tested in vitro enzyme activity against 78 proteins, including GPCR, ion channel, kinases, nuclear hormone receptors, and transporters. In all assays, the IC50 of EDG-5506 was more than 10 μM (Supplemental Data File 1).

[3] = target: T2, PDGFRB (Homo sapiens, UniProt P09619); test: KINOMEscan scanEDGE; assay type: binding; settings: 20 uM
T2 construct: purchased Eurofins DiscoverX (KINOMEscan; SAFETYscan E/IC50 ELECT)
T2 sequence (P09619 33-1106): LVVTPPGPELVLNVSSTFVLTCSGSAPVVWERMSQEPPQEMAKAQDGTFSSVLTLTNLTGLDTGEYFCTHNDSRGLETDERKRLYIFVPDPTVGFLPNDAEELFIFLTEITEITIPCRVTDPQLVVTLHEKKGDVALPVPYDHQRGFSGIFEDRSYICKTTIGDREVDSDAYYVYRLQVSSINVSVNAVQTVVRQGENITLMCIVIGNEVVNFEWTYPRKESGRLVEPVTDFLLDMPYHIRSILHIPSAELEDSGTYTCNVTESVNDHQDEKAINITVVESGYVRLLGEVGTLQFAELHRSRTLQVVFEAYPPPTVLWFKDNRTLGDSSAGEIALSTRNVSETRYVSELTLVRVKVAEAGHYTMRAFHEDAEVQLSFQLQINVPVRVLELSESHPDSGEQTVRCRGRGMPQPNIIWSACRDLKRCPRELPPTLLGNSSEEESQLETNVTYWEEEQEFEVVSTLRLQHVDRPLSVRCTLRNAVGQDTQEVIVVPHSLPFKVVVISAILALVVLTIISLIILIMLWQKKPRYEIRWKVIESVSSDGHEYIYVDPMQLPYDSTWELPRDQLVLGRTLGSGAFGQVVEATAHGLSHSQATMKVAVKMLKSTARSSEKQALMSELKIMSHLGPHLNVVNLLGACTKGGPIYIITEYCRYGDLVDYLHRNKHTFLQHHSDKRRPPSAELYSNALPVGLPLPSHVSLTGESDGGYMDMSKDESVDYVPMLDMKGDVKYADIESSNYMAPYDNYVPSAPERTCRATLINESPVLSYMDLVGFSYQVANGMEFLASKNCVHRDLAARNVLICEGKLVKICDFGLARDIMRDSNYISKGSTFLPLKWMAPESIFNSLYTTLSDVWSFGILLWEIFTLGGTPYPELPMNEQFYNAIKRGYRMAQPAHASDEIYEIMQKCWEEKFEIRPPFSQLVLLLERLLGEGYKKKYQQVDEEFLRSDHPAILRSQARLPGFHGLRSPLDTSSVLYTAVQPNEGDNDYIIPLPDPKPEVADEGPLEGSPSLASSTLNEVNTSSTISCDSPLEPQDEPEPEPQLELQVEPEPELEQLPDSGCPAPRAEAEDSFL

[4] = target: T3, GSK3B (Homo sapiens, UniProt P49841); test: KINOMEscan scanEDGE; assay type: binding; settings: 20 uM
T3 construct: purchased Eurofins DiscoverX (KINOMEscan; SAFETYscan E/IC50 ELECT)

[5] = target: T4, MAPKAPK2 (Homo sapiens, UniProt P49137); test: KINOMEscan scanEDGE; assay type: binding; settings: 20 uM
T4 construct: purchased Eurofins DiscoverX (KINOMEscan; SAFETYscan E/IC50 ELECT)
T4 sequence (P49137 whole entry): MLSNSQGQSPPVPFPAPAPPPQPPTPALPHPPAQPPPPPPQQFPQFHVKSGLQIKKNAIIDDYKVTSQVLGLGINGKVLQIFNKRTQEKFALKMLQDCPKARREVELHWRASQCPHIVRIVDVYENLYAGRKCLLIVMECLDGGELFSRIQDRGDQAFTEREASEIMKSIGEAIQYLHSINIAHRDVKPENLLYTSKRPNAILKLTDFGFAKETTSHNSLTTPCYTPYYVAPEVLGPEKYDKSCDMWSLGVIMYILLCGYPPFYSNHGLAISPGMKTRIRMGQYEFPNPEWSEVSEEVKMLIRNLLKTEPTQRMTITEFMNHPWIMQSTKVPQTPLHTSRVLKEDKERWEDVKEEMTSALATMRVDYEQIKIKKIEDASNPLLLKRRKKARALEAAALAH

[6] = tested on: EDL muscles from mdx mice; test: Ex vivo eccentric (lengthening) contraction injury, mdx EDL; design: species or system mouse
Protocol: (§2) Isometric force was measured ex vivo in mouse EDL and soleus muscle. EDL muscle eccentric injury was based on published protocols ([30]), with degree of lengthening and stimulation modified to yield a uniform drop in mdx isometric and peak force over 10 contractions. After isolation, muscle was mounted via 5-0 suture to a combination servomotor/force transducer (300C-LR, Aurora) between 2 electrodes connected to a stimulator (701C, Aurora) in Ringers solution at 27°C with continuously infused CO2/O2 gas mixture. Experiments were recorded with custom MATLAB software via a National Instruments PCIe-6321 board and 2090A BNC connector. Muscles were preincubated for 60 minutes with DMSO (final 0.1%)/compound before 10 eccentric contractions, 1 minute apart, with 100 milliseconds of isometric stimulation at 100 Hz and active lengthening of 0.1 L0 at a rate of 2 L0/s. After lengthening, muscles were held at 1.1 L0 with stimulation for 100 milliseconds (Supplemental Figure 2A).

[7] = target: T5, KIT(D816V) (Homo sapiens, UniProt P10721, D816V); test: KINOMEscan scanEDGE; assay type: binding; settings: 20 uM
T5 construct: purchased Eurofins DiscoverX (KINOMEscan; SAFETYscan E/IC50 ELECT)

[8] = target: T6, CDK3 (Homo sapiens, UniProt Q00526); test: KINOMEscan scanEDGE; assay type: binding; settings: 20 uM
T6 construct: purchased Eurofins DiscoverX (KINOMEscan; SAFETYscan E/IC50 ELECT)

[9] = target: T7, ROCK1 (Homo sapiens, UniProt Q13464); test: SAFETYscan Binding; design: dose or concentration left out as unconfirmed; settings: read-out: Max Response (%) (Antagonist)
T7 construct: purchased Eurofins DiscoverX (KINOMEscan; SAFETYscan E/IC50 ELECT)
T7 sequence (Q13464 whole entry): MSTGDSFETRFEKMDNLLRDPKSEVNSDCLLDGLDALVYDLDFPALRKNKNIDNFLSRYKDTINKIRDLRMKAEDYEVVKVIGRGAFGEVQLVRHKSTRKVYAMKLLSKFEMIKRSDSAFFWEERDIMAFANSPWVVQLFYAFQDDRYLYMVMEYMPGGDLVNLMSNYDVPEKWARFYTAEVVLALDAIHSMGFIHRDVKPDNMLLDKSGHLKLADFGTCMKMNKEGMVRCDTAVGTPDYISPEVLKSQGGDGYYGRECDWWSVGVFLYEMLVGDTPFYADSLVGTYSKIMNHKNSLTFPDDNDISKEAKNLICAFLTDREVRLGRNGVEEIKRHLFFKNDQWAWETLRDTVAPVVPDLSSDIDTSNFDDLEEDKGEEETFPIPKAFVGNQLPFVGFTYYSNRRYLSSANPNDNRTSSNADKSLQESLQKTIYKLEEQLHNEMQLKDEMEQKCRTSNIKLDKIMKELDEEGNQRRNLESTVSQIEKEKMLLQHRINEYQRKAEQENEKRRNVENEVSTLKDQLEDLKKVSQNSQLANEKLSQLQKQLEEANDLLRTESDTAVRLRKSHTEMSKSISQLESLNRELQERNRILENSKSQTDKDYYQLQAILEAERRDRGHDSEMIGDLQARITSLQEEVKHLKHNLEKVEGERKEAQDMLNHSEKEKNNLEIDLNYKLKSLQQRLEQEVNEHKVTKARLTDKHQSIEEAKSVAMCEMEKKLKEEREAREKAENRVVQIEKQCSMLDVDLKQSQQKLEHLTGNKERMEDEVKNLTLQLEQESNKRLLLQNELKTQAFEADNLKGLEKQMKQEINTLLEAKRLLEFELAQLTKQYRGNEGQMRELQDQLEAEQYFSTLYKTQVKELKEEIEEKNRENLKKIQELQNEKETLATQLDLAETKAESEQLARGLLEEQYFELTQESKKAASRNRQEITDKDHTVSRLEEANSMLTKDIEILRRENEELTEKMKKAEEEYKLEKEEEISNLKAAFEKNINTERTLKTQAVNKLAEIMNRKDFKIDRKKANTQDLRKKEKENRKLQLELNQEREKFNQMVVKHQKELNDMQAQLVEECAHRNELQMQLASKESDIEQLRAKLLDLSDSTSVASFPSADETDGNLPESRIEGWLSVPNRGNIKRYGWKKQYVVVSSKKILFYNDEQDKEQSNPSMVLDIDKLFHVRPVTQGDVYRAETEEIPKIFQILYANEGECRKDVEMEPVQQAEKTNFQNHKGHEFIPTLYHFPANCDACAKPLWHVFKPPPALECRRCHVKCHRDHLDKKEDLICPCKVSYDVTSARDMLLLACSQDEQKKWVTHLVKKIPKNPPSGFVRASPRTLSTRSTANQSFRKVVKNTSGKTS
Protocol: as §1

[10] = target: T8, LCK (Homo sapiens, UniProt P06239); test: SAFETYscan Binding; design: dose or concentration left out as unconfirmed; settings: read-out: Max Response (%) (Antagonist)
T8 construct: purchased Eurofins DiscoverX (KINOMEscan; SAFETYscan E/IC50 ELECT)
T8 sequence (P06239 whole entry): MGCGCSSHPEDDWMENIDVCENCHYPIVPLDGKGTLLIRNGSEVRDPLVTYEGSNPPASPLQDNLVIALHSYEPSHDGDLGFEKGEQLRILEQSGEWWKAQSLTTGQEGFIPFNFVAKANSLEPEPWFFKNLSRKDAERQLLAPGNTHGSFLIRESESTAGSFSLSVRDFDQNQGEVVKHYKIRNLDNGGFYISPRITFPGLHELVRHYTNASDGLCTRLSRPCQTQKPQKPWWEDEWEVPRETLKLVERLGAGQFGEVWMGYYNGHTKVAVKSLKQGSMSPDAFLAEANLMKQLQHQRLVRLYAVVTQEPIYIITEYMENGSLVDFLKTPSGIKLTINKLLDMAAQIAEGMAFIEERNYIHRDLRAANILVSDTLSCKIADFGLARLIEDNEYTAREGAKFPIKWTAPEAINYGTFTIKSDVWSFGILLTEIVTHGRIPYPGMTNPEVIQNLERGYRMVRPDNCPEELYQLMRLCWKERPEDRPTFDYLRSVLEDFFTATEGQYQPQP
Protocol: as §1

[11] = target: T9, INSR (Homo sapiens, UniProt P06213); test: SAFETYscan Binding; design: dose or concentration left out as unconfirmed; settings: read-out: Max Response (%) (Antagonist)
T9 construct: purchased Eurofins DiscoverX (KINOMEscan; SAFETYscan E/IC50 ELECT)
Protocol: as §1

[12] = target: T10, VEGFR2 (Homo sapiens, UniProt P35968); test: SAFETYscan Binding; design: dose or concentration left out as unconfirmed; settings: read-out: Max Response (%) (Antagonist)
T10 construct: purchased Eurofins DiscoverX (KINOMEscan; SAFETYscan E/IC50 ELECT)
Protocol: as §1

[13] = target: mouse gastrocnemius myofibrils; test: Myofibril ATPase, mouse gastrocnemius; assay type: biochemical; settings: 21% IIa, 15% IIx, 56% IIb
[14] = target: T11, TSSK1B (Homo sapiens, UniProt Q9BXA7); test: KINOMEscan scanEDGE; assay type: binding; settings: 20 uM
T11 construct: purchased Eurofins DiscoverX (KINOMEscan; SAFETYscan E/IC50 ELECT)

[15] = target: T12, MET (Homo sapiens, UniProt P08581); test: KINOMEscan scanEDGE; assay type: binding; settings: 20 uM
T12 construct: purchased Eurofins DiscoverX (KINOMEscan; SAFETYscan E/IC50 ELECT)

[16] = target: T13, BMPR2 (Homo sapiens, UniProt Q13873); test: KINOMEscan scanEDGE; assay type: binding; settings: 20 uM
T13 construct: purchased Eurofins DiscoverX (KINOMEscan; SAFETYscan E/IC50 ELECT)

[17] = target: T14, JAK2(JH1domain-catalytic) (Homo sapiens, UniProt O60674); test: KINOMEscan scanEDGE; assay type: binding; settings: 20 uM
T14 construct: JAK2(JH1domain-catalytic); purchased Eurofins DiscoverX (KINOMEscan; SAFETYscan E/IC50 ELECT)

[18] = tested on: mouse extensor digitorum longus (EDL) muscle; test: Ex vivo isometric force, mouse EDL; settings: WT mouse EDL, 10 μM
Protocol: as §2

[19] = target: T15, COX1 (Homo sapiens, UniProt P23219); test: SAFETYscan Enzymatic; assay type: biochemical; design: dose or concentration left out as unconfirmed; settings: read-out: Max Response (%) (Antagonist)
T15 construct: purchased Eurofins DiscoverX (KINOMEscan; SAFETYscan E/IC50 ELECT)
T15 sequence (P23219 24-599): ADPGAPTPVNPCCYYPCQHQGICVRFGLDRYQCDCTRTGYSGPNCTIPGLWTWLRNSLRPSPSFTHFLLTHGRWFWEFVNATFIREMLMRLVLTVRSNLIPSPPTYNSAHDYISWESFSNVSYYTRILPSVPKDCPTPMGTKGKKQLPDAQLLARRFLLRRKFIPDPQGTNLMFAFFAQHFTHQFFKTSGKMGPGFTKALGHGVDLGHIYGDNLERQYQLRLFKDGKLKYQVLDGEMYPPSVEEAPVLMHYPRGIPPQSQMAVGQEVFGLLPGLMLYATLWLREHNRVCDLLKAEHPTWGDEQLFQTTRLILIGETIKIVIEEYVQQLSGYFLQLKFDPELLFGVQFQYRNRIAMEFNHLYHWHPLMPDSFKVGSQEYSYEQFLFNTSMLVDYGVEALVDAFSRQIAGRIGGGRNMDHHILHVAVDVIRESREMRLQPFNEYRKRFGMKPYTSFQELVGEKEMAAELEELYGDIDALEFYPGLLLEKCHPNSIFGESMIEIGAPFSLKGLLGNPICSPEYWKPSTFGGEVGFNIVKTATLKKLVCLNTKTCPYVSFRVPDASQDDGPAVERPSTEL
Protocol: as §1

[20] = target: T16, PDE4D2 (Homo sapiens, UniProt Q08499); test: SAFETYscan Enzymatic; assay type: biochemical; design: dose or concentration left out as unconfirmed; settings: read-out: Max Response (%) (Antagonist)
T16 construct: purchased Eurofins DiscoverX (KINOMEscan; SAFETYscan E/IC50 ELECT)
Protocol: as §1

[21] = target: T17, PDE3A (Homo sapiens, UniProt Q14432); test: SAFETYscan Enzymatic; assay type: biochemical; design: dose or concentration left out as unconfirmed; settings: read-out: Max Response (%) (Antagonist)
T17 construct: purchased Eurofins DiscoverX (KINOMEscan; SAFETYscan E/IC50 ELECT)
Protocol: as §1

[22] = target: T18, COX2 (Homo sapiens, UniProt P35354); test: SAFETYscan Enzymatic; assay type: biochemical; design: dose or concentration left out as unconfirmed; settings: read-out: Max Response (%) (Antagonist)
T18 construct: purchased Eurofins DiscoverX (KINOMEscan; SAFETYscan E/IC50 ELECT)
Protocol: as §1

[23] = target: T19, MAOA (Homo sapiens, UniProt P21397); test: SAFETYscan Enzymatic; assay type: biochemical; design: dose or concentration left out as unconfirmed; settings: read-out: Max Response (%) (Antagonist)
T19 construct: purchased Eurofins DiscoverX (KINOMEscan; SAFETYscan E/IC50 ELECT)
Protocol: as §1

[24] = target: T20, AChE (Homo sapiens, UniProt P22303); test: SAFETYscan Enzymatic; assay type: biochemical; design: dose or concentration left out as unconfirmed; settings: read-out: Max Response (%) (Antagonist)
T20 construct: purchased Eurofins DiscoverX (KINOMEscan; SAFETYscan E/IC50 ELECT)
T20 sequence (P22303 32-614): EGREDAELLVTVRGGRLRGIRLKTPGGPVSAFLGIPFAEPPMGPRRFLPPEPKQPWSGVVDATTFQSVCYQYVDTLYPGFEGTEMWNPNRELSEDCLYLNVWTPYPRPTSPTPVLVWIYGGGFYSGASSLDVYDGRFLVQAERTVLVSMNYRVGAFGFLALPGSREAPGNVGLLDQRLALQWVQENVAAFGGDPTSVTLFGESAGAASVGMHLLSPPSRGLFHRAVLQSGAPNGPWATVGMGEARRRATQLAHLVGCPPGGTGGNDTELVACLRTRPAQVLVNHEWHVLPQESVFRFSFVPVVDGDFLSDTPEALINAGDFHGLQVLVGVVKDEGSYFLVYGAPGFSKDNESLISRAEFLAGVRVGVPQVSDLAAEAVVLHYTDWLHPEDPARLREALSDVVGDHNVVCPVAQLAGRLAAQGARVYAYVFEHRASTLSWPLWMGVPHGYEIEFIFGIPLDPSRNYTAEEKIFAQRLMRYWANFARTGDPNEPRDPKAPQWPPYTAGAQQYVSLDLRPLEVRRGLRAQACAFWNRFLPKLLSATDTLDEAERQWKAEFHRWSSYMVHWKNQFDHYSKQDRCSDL
Protocol: as §1

[25] = target: T21, PAK1 (Homo sapiens, UniProt Q13153); test: KINOMEscan scanEDGE; assay type: binding; settings: 20 uM
T21 construct: purchased Eurofins DiscoverX (KINOMEscan; SAFETYscan E/IC50 ELECT)

[26] = target: T22, PAK2 (Homo sapiens, UniProt Q13177); test: KINOMEscan scanEDGE; assay type: binding; settings: 20 uM
T22 construct: purchased Eurofins DiscoverX (KINOMEscan; SAFETYscan E/IC50 ELECT)

[27] = target: T23, ABL1-nonphosphorylated (Homo sapiens, UniProt P00519); test: KINOMEscan scanEDGE; assay type: binding; settings: 20 uM
T23 construct: purchased Eurofins DiscoverX (KINOMEscan; SAFETYscan E/IC50 ELECT)

[28] = target: Rabbit Cardiac myofibrils; test: Myofibril ATPase, rabbit cardiac; assay type: biochemical; settings: 25% MHCα, 75% MHC β, at pCa 50
[29] = target: T24, p38-beta (Homo sapiens, UniProt Q15759); test: KINOMEscan scanEDGE; assay type: binding; settings: 20 uM
T24 construct: purchased Eurofins DiscoverX (KINOMEscan; SAFETYscan E/IC50 ELECT)
T24 sequence (Q15759 whole entry): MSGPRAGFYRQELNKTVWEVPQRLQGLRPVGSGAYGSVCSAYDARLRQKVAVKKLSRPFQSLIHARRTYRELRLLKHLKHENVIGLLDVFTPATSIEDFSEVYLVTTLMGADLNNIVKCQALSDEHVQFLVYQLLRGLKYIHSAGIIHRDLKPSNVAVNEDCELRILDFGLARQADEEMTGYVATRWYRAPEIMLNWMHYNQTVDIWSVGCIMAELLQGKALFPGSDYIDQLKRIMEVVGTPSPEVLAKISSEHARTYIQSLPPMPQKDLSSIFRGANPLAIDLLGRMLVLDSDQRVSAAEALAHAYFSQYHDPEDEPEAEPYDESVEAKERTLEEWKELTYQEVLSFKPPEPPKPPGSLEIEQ

O=c1ccc(-c2cnc(OCC(F)(F)F)nc2)nn1Cc1cncc(F)c1 [EDG-5506]
binding, % of control [1]: 95 % of control
Max Response (%) (Agonist) [2]: 4.91%
Max Response (%) (Antagonist) [2]: 7.72%
binding, % of control [3]: 100 % of control
binding, % of control [4]: 99 % of control
binding, % of control [5]: 100 % of control
inhibition at 1 µM ([6]; Mus musculus, at ≤1 μM (near maximal protection), read-out: inhibition of isometric force): ~15%
strength drop with repeated lengthening contractions ([6]; mdx EDL ex vivo): dramatically lowered
concentration giving near maximal protection from strength drop ([6]; mdx EDL, 10 lengthening contractions, 1-hour preincubation): ≤ 1 µM
binding, % of control [7]: 87 % of control
binding, % of control [8]: 100 % of control
Emax [9]: 24.6%
Emax [10]: 0%
Emax [11]: 26.9%
Emax [12]: 18.1%
IC50 [13]: 400 nM
binding, % of control [14]: 97 % of control
binding, % of control [15]: 55 % of control
binding, % of control [16]: 99 % of control
binding, % of control [17]: 83 % of control
ex vivo force inhibition [18]: completely inhibiting force
Emax [19]: 4.78%
Emax [20]: 7.16%
Emax [21]: 0.91%
Emax [22]: 3.26%
Emax [23]: 7.79%
Emax [24]: 16.4%
binding, % of control [25]: 100 % of control
binding, % of control [26]: 98 % of control
binding, % of control [27]: 96 % of control
IC50 [28]: > 100000 nM
binding, % of control [29]: 54 % of control

Reference: PMC10178848, “Modulating fast skeletal muscle contraction protects skeletal muscle in animal models of Duchenne muscular dystrophy” (The Journal of Clinical Investigation, 2023)
